The values below come from patent US20160303127A1, “COMBINATION THERAPY WITH C-MET AND EGFR ANTAGONISTS” (Genentech, Inc., priority 2008, published 2016).

Several values for one entry are separate records, joined by “and”; a condition that tells them apart may be missing. Equal values may be shown once.

One assay concerns the target T1, c-met (Homo sapiens, UniProt P08581, DEL964-1010).
T1 construct: endogenous in cells; host or cells: NCI-H596 (human NSCLC) cells grown as xenograft tumours in hu-HGF-Tg-SCID mice; tumour lysate, IP and immunoblot
In words: c-met phosphorylation in NCI-H596 hu-HGF-Tg-SCID xenograft tumors (IP/immunoblot). The class given is in vivo, mouse xenograft. Particulars: MetMAb 30 mg/kg 24 h, erlotinib 150 mg/kg 6 h prior to harvest, average of 5 animals. The protocol:
(§1) Tumors were allowed to grow to 200-300 mm^3 prior to treatment. Dosing was performed as described in Table 8. Briefly, MetMAb (30 mg/kg) or MetMAb buffer was dosed at time zero hours (0 hr) and methylcellulose tween vehicle (MCT) or erlotinib (150 mg/kg) was dosed at time 18 hours (18 hr). Mice were euthanized and tumors and plasma collected at time 24 hours (24 hr). Tumors were snap frozen in liquid nitrogen and then kept at −70° C. until they were processed for immunoprecipitation and immunoblotting.
Immunoprecipitations and Immunoblotting: To process tumors for protein analysis, tumors were first homogenized using a glass dounce with lysis buffer (Cell Signaling Technology, Inc., Danvers, Mass.), supplemented with 1 mM PMSF, additional protease inhibitor cocktail, and phosphatase inhibitor cocktail I and II (Sigma, Inc., St. Louis, Mo.). Lysates were incubated on ice for one hour and then centrifuged at 14,000×g for five minutes and supernatants collected. Protein concentrations were determined using the BCA™ Protein Assay Kit (Pierce, Inc., Rockford, Ill.) and samples were immunoblotted. […] For direct Western blots, 50 μg of tumor lysate was loaded per lane. Samples were then analyzed by SDS-PAGE and immunoblotting. […] Goat-anti-mouse-IRdye800 (Rockland Immunochemicals, Inc., Gilbertsville, Pa.) and goat-anti-rabbit-AlexaFluor680 (Molecular Probes, Inc., Eugene, Oreg.) were used as secondary antibodies. Immunoblots were imaged and phospho-protein levels were quantified and normalized to total protein levels (e.g. pEGFR over total EGFR) using an Odyssey imager (LI-COR Biosciences, Lincoln, Nebr.).
Twenty hu-HGF-Tg-SCID mice were inoculated with NCI-H596 cells and tumors established, as previously described. Once tumors reached sizes between 200-300 mm^3, mice were evenly grouped into four groups based upon tumor volume and dosing was begun (Table 8). MetMAb was dosed 24 hours prior to tumor harvest whereas erlotinib was dosed 6 hours prior to harvest. Dosing times were selected based on the relative half-life of each therapeutic agent. […]
(Immunoblotting shows a protein as a band on a membrane.)

The subject of a further assay is EBC-1 shMet-4.5 tumors. The assay is described as follows: Combination efficacy of erlotinib with c-met knockdown (Dox) in the EBC-1 shMet-4.5 NSCLC xenograft model. Particulars: EBC-1 shMet-4.5 xenograft. The class given is in vivo, nude mice (nu/nu). The protocol:
Test material. Erlotinib (Tarceva™) was provided by OSI Pharmaceuticals to the Formulations Department at Genentech and was weighed out along with a sufficient amount of vehicle (methylcellulose tween (MCT)). Materials were stored in a refrigerator set to maintain a temperature range of 4° C. to 8° C. Anti-c-met monovalent monoclonal antibody MetMAb (rhuOA5D5v2) (WO2007/063816) was provided by the Antibody Engineering Department at Genentech, Inc., in a clear liquid form. The EBC-1 cell line was obtained from Japanese Collection of Research Bioresources (JCRB). Species. Forty nude mice (nu/nu) were obtained from Charles River Laboratories (CRL) and were acclimatized for at least one week prior to being put on study. Animals were housed in ventilated caging systems in rooms with filters supplying High-Efficiency Particulate Air (HEPA). Only animals that appeared to be healthy and were free of obvious abnormalities were used for the study. Study design. EBC-1 cells were cultured in growth media that consisted of RPMI 1640 media (Invitrogen), 2 mM L-glutamine, and 10% fetal bovine serum. To prepare cells for inoculation into mice, cells were trypsinized, washed with ten milliliters of sterile 1× phosphate buffered saline (PBS). A subset of cells was counted by trypan blue exclusion and the remainder of cells was resuspended in 100 μl of sterile 1× PBS to a concentration of 5×10^7 cells per milliliter. Mice were inoculated subcutaneously in the right sub-scapular region with 5×10^6 EBC-1 cells. […] Mice in Group 1 (control group) were treated with 100 μL vehicle control, methylcellulose tween (MCT), every day (QD) via oral gavage (PO) and were switched to drinking water containing 5% sucrose. […] Dox and sucrose water was changed every 2-3 days. Erlotinib and MCT were dosed for 14 days, stopped for 6 days and then resumed for the remainder of the study (20 days). […] All studies and handling of mice complied with the Institutional Animal Care and Use Committee (IACUC) guidelines. [table] Tumor and Body Weight Measurement. […] Fowler Company, Inc.; Newton, Mass.). The following formula was used with Excel v11.2 (Microsoft Corporation; Redmond, Wash.) to calculate tumor volume: […] Efficacy Data Analysis. Tumor inhibition was plotted using KaleidaGraph 3.6 (Synergy Software; Reading, Pa.). Percent growth inhibition (% Inh) at Day 17 was calculated as follows: […] Tumor incidence (TI) was determined by the number of measurable tumors in each group at Day 17. […] Mean tumor volume and standard error of the mean (SEM) were calculated using JMP software, version 5.1.2 (SAS Institute; Cary, N.C.). Data analysis and generation of p-values using either Student's t-test or the Dunnett's t-test was also done using JMP software, version 5.1.2. […] Mice were then grouped into four treatment arms; […] Vehicles, Group 2: Doxycycline (Dox), Group 3: erlotinib (100 mg/kg), and Group 4: erlotinib+Dox (See Table 6).

A further assay concerns NCI-H596 cell line. Particulars: NCI-H596 cell line in vitro; cited from earlier work.
The target of another assay is T2, EGFR (Homo sapiens, UniProt P00533).
T2 construct: endogenous in cells; host or cells: NCI-H596 (human NSCLC) cells grown as xenograft tumours in hu-HGF-Tg-SCID mice; tumour lysate, IP with MI-12-1 and immunoblot
In words: EGFR phosphorylation in NCI-H596 hu-HGF-Tg-SCID xenograft tumors (IP/immunoblot). The class given is in vivo, mouse xenograft. Particulars: MetMAb 30 mg/kg 24 h, erlotinib 150 mg/kg 6 h prior to harvest, average of 5 animals. The protocol: as §1
Immunoprecipitations and Immunoblotting: To process tumors for protein analysis, tumors were first homogenized using a glass dounce with lysis buffer (Cell Signaling Technology, Inc., Danvers, Mass.), supplemented with 1 mM PMSF, additional protease inhibitor cocktail, and phosphatase inhibitor cocktail I and II (Sigma, Inc., St. Louis, Mo.). Lysates were incubated on ice for one hour and then centrifuged at 14,000×g for five minutes and supernatants collected. Protein concentrations were determined using the BCA™ Protein Assay Kit (Pierce, Inc., Rockford, Ill.) and samples were immunoblotted. […] Samples were then analyzed by SDS-PAGE and immunoblotting. […] Immunoblots were imaged and phospho-protein levels were quantified and normalized to total protein levels (e.g. pEGFR over total EGFR) using an Odyssey imager (LI-COR Biosciences, Lincoln, Nebr.). […]

[1] abbreviates: 10 mice per group, any day during the study.

In the case of `C#Cc1cccc(Nc2ncnc3cc(OCCOC)c(OCCOC)cc23)c1` [erlotinib, N-(3-ethynylphenyl)-6,7-bis(2-methoxyethoxy)-4-quinazolinamine], the figures for the “pMet/total Met (c-met phosphorylation)” value at c-met and at c-met (listed as Erlotinib) were “did not reduce c-met phosphorylation” and 157 (±103.4) % of vehicle control, respectively. Moreover, the “number of complete responses (CR; tumor regression of 100%)” value in the assay with EBC-1 shMet-4.5 tumors (setting [1]) was “no”. Also, the “number of partial responses (PR; tumor regression >50% but <100% of starting tumor volume)” value in the assay on EBC-1 shMet-4.5 tumors (setting [1]) is listed as “no”. In addition, in the assay with EBC-1 shMet-4.5 tumors (nude mice, day 19, erlotinib 100 mg/kg PO QD, Dox in drinking water), the “reduction in tumor growth compared to the vehicle control (tumor inhibition)” value was −6%.

B1: MetMAb: Anti-c-met monovalent monoclonal antibody MetMAb (rhuOA5D5v2) (WO2007/063816) (antibody, chains of the INN, looked up, V domains shown)
VH: EVQLVESGGGLVQPGGSLRLSCAASGYTFTSYWLHWVRQAPGKGLEWVGMIDPSNSDTRFNPNFKDRFTISADTSKNTAYLQMNSLRAEDTAVYYCATYRSYVTPLDYWGQGTLVTVSS
VL: DIQMTQSPSSLSASVGDRVTITCKSSQSLLYTSSQKNYLAWYQQKPGKAPKLLIYWASTRESGVPSRFSGSGSGTDFTLTISSLQPEDFATYYCQQYYAYPWTFGQGTKVEIK
modifications: one-armed
Turning to B1, in the assay with c-met, the “pMet/total Met (c-met phosphorylation)” value is 12% (+/−3.6%) % of vehicle control and 12 (±3.5) % of vehicle control. In addition, in the assay on NCI-H596 cell line, the HGF-driven proliferation entry is given as “blocks HGF-driven proliferation”. For the same molecule, in the assay with EGFR, the “pEGFR/total EGFR (phosphorylation of EGFR)” value is 62% (+/−21.6%) % of vehicle control and 62 (±21.6) % of vehicle control.
